Results on 3 molecules are retold here after US12589087B2, “Enantiomer selective action on neurotransmission” (The Board of Trustees of the Leland Stanford Junior …, priority 2021, dated 2026).

One data set addresses T1, GluN2A (Homo sapiens, UniProt Q12879).
T1 construct: host or cells: HEK 293 (stably expressing)
Nature of the data set: FLIPR functional assay, HEK 293 cells (agonist/PAM/antagonist). To be noted: top concentration 100 μM, read-out: IC50, functional antagonist receptor assay. The data set is classed as cell-based. The protocol:
Functional assays of all GABAA, NMDA (GluN2A-GluN2D) and AMPA (GluA2) receptor subunits were performed by SB Drug Discovery as a part of their CNS discovery panel using FLIPR technology. Briefly, receptor-expressing HEK 293 cell lines were incubated in a red membrane potential dye in HEPES:HBSS pH 7.4 buffer and the fluorescence (λex: 488, λex: 510-570) was monitored over time as the test compounds and/or reference compounds were added to the solution. In agonist assay, only test compounds were added. In positive allosteric modulator assay, cells were preincubated with test compounds and then low concentration (approximately EC20) of an appropriate agonist was added. In antagonist assay, cells were preincubated with test compounds and then high concentration (approximately EC80) of an appropriate agonist was added. For GABAA assays, GABA was used as the agonist, picrotoxin was used as the reference antagonist and allopregnanolone was used as the reference positive allosteric modulator (PAM). For NMDA assays, a mixture of glutamate, glycine and CaCl2 was used as the agonist, MK801 was the reference antagonist and pregnenolone sulfate or GNE 9278 were used as reference PAMs. For AMPA assays, glutamate was used as the agonist, CNQX was the reference antagonist and cyclothiazide was used as the reference PAM. All compounds were tested at 7 concentration points in triplicate and EC50/IC50 was determined where applicable. Functional GABAB assay was performed by Eurofins Discovery (Cerep) using Ca^2+-dependent fluorimetry in RBL cells expressing human GABAB (B1/B2) receptor. All compounds were tested at a single concentration of 100 uM in triplicate.
All receptor assays were performed exactly as described in Example 1. Functional assays of all GABAA, NMDA (GluN2A-GluN2D) and AMPA (GluA2) receptor subunits were performed by SB Drug Discovery as a part of their CNS discovery panel using FLIPR technology. All compounds were tested at 7 concentrations in triplicate and EC50/IC50 was determined where applicable. Functional GABAB assay was performed by Eurofins Discovery (Cerep) using Ca^2+-dependent fluorimetry in RBL cells expressing human GABAB (B1/B2) receptor. All compounds were tested at a single concentration of 100 uM in triplicate. Nonspecific AMPA, kainate and NMDA binding assays were performed by Eurofins Discovery (Cerep) using rat cerebral cortex membranes and radiolabeled [^3H]AMPA, [^3H]kainic acid and [^3H]CGP 39653, respectively. All compounds were tested at a single concentration of 100 uM in triplicate. mGluR1, mGluR2, mGluR5 and GABAB binding assays were performed by Eurofins Discovery. All compounds were tested at a single concentration of 100 uM in triplicate.

Another data set deals with T2, human glutaminase GLS1 (Homo sapiens, UniProt O94925).
T2 construct: purchased Sigma SRP0516
T2 sequence (O94925 55-669): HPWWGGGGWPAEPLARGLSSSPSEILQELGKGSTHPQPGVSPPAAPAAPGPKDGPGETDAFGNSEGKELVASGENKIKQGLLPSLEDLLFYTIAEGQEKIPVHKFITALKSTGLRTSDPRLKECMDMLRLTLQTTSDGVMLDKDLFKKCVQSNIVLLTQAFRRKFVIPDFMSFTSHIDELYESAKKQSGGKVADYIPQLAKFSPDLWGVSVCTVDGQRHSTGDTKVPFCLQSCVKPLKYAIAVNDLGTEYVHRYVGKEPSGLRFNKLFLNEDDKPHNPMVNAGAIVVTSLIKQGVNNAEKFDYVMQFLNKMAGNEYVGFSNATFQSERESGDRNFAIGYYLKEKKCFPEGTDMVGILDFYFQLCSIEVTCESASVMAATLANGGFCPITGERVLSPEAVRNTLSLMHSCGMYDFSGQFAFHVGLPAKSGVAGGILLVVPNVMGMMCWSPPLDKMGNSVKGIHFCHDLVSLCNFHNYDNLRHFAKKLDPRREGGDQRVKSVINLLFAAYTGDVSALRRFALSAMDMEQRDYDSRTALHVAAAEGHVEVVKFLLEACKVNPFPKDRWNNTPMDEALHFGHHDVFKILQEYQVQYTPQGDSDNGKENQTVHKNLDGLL
Nature of the data set: Catalysis of 2MeGln hydrolysis by GLS1 glutaminase. The data set is classed as biochemical. The conditions noted are these: 10 mM substrate. The method, then: The procedure was adapted from an existing protocol. To a reaction mixture in a 1.5 mL microcentrifuge tube containing 10 mM rac-2MeGln or L-Gln-^13C2 in 100 mM phosphate pH 7.4 buffer made in 20% atom ^18O water, recombinant GLS1 (final concentration: 5 ng/mL) was added. The tubes were incubated in a preheated thermomixer at 37° C. and periodically shaken at 600 rpm (30 s on, 30 s off). 5 μL aliquots were collected in triplicate every 5 min and immediately diluted with 195 μL of cold 60% ACN containing 10 μM Glu-d5 and Gln-d5 as internal standards in a 96 well plate. After collecting all samples, the plate was shaken at 1000 rpm for 5 min at room temperature, and then stored at −80° C. Before analysis the plate was thawed and 10 μL aliquots of the extracted reaction mixtures were diluted with 190 μL of 90% acetonitrile.
The quantification of the newly formed 2MeGlu in the presence of the preexisting trace amounts was performed in the following way. Peak area ratio of Glu-^13C2 to Glu-^13C2^18O was calculated in all samples containing Glu-^13C2. The mean ratio value was then applied to calculate the hypothetical peak area of the newly formed 2MeGlu based on the directly measured 2MeGlu-^18O peak area. The ratio of the newly formed 2MeGlu peak area and the total 2MeGlu peak area was applied to calculate the concentration of the newly formed 2MeGlu from the total 2MeGlu concentration determined directly using the calibration curve.

The test system of a further data set is Line 41 mice. Nature of the data set: Transgenic Aβ model of AD, behavior tests. The conditions noted are these: 10 mg/kg/d IP for 6 weeks. The data set is classed as in vivo. The method, then:
Cerebral Aβ accumulation is a core feature of AD. Since memantine, a glutamate receptor subtype antagonist is an approved treatment for people with AD, we tested whether our false glutamatergic neurotransmitter might be therapeutic in a transgenic model of AD. Four month old Line 41 male mice were treated with S-2MeGlu at 10 mg/kg/d IP for 6 weeks with behavior tested using activity chamber, Y maze, novel object and novel place recognition, Morris water maze, and fear conditioning.

T1 sequence (Q12879 23-1464, other chains not shown): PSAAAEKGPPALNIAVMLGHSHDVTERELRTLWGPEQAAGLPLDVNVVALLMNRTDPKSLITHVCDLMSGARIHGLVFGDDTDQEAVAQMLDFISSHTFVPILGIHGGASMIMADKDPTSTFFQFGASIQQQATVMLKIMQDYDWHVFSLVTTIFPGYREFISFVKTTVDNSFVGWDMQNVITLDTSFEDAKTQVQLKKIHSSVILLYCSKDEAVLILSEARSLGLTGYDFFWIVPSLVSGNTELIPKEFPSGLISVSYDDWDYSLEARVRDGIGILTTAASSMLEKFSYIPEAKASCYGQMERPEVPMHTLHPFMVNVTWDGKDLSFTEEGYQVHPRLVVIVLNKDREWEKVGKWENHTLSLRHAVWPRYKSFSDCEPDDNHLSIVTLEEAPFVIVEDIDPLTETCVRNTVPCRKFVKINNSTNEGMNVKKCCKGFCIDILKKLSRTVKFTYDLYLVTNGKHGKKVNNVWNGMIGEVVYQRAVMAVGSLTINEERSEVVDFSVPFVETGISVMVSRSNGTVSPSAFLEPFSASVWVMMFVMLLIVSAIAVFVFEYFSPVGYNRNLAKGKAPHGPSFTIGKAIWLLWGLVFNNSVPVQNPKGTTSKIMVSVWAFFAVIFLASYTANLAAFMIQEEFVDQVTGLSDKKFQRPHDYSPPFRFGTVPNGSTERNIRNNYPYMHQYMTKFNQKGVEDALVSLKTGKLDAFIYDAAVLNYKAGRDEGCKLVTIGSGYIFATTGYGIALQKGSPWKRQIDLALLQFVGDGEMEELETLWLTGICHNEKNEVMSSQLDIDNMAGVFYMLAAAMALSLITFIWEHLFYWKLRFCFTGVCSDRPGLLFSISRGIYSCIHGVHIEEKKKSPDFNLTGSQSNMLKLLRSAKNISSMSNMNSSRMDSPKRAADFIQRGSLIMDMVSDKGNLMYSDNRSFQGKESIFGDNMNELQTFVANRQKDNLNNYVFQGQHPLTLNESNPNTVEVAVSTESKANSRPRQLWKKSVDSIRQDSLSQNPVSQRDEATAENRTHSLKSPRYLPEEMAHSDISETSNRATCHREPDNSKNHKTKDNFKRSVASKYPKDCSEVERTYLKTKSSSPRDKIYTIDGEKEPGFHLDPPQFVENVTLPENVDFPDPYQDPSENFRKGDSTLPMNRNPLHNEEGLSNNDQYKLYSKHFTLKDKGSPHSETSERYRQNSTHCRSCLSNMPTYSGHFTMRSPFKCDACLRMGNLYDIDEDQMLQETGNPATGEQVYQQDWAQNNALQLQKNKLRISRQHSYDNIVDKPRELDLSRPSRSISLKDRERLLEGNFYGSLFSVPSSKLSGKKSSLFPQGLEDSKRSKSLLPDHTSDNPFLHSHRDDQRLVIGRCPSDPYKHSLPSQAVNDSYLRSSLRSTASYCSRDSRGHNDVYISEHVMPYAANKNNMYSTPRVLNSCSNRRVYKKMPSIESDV

The term IC50 denotes the concentration that inhibits the measured activity by half. As to `C[C@@](N)(CCC(=O)O)C(=O)O` [(R)-2MeGlu, (R)-2-methylglutamic acid], the IC50 at GluN2A worked out at 69 µM.
With `CC(N)(CCC(N)=O)C(=O)O` (racemic) [rac-2MeGln, rac-2-methylglutamine], the “apparent GLS1 reaction rate, lower compared to that of Gln” value on human glutaminase GLS1 is recorded as “approximately 35 fold”. The “apparent reaction rate of GLS1 hydrolysis” value on human glutaminase GLS1 (5 ng/mL enzyme, phosphate pH 7.4) amounted to 1.9 µM/min.
As for `C[C@](N)(CCC(=O)O)C(=O)O` [(S)-2MeGlu, (S)-2-methylglutamic acid], in the data set on Line 41 mice, the “Aβ accumulation by immunohistochemistry” value is on record as “no change in Aβ accumulation”; the “behavior tests (activity chamber, Y maze, novel object and place recognition, Morris water maze, fear conditioning)” value is reported as “only rescued performance in the Y maze”; the “body weights or deaths” value is “no difference in body weights or any deaths”.
